In patent US20040038855A1 (priority 1999, published 2004):
Read-outs that look alike come from different tables or passages of the source.

Legend:
[1] = system: micturition reflex, conscious male Sprague Dawley rats; test: Continuous Slow Transvesicular Infusion (CSTI) rat model; type: in vivo; set-up: key to Effect of MCH1 antagonist in the CSTI model: B = Produced an increase in bladder capacity in rats relative to baseline capacity; conditions: bladder capacity, intragastric
Description: The effects of compounds on the micturition reflex were assessed in the “distension-induced rhythmic contraction” (DIRC), as described in previous publications (e.g. Maggi et al, 1987; Morikawa et al, 1992), and Continuous Slow Transvesicular Infusion (CSTI) models in rats. Male Sprague Dawley rats weighing approximately 300 g were used for the study. Rats were anaesthetized with pentobarbitone sodium (50 mg/kg, i.p). Through a median abdominal incision, bladder was exposed and a polyethylene cannula (PE 50) was introduced into the bladder through a small cut on the dome of the bladder and the cannula was secured with a purse string suture. The other end of the cannula was exteriorized subcutaneously at the dorsal neck area. Similarly, another cannula (PE 50) was introduced into the stomach through a paramedian abdominal incision with the free end exteriorized subcutaneously to the neck region. The surgical wounds were closed with silk 4-0 suture and the animal was allowed to recover with appropriate post surgical care. On the following day, the animal was placed in a rat restrainer. The open end of the bladder cannula was connected to a pressure transducer as well as infusion pump through a three-way stopcock. The bladder voiding cycles were initiated by continuous infusion of normal saline at the rate of 100 ul/min. The repetitive voiding contractions were recorded on a Power Lab on-line data acquisition software. After recording the basal voiding pattern for an hour, the test drug or vehicle was administered directly into stomach through the intragastric catheter and the voiding cycles were monitored for 5 hours. Micturition pressure and frequency were calculated before and after the treatment (at every 30 min interval) for each animal. Bladder capacity was calculated from the micturition frequency, based on the constant infusion of 100 ul/min. The effect of the test drug was expressed as a percentage of basal, pre-drug bladder capacity. WAY 100635 was used as positive control for comparison.

rat MCH1 receptor = molecular target: T1, rat MCH1 receptor (Rattus norvegicus, UniProt P97639); test: Binding affinity (Ki) at the rat MCH1 receptor
T1 construct: expressed in transfected cells
T1 sequence (P97639 whole entry): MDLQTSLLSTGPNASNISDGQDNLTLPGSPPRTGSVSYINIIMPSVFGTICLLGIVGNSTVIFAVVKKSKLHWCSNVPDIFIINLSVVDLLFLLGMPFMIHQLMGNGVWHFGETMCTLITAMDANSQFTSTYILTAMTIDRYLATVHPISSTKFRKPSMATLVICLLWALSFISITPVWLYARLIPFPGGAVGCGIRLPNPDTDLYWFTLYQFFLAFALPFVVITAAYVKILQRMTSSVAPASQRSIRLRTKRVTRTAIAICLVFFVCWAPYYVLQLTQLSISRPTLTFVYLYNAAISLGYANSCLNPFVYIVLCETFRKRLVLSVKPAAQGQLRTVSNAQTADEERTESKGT

[2] = molecular target: T2, human Dopamine D2 receptor (Homo sapiens, UniProt P14416); test: Binding affinity at the human dopamine D2 receptor; conditions: Table 3c; read-out: hD2 Ki
T2 construct: purchased BioSignal, Inc. (Montreal, Canada)
T2 sequence (P14416 whole entry): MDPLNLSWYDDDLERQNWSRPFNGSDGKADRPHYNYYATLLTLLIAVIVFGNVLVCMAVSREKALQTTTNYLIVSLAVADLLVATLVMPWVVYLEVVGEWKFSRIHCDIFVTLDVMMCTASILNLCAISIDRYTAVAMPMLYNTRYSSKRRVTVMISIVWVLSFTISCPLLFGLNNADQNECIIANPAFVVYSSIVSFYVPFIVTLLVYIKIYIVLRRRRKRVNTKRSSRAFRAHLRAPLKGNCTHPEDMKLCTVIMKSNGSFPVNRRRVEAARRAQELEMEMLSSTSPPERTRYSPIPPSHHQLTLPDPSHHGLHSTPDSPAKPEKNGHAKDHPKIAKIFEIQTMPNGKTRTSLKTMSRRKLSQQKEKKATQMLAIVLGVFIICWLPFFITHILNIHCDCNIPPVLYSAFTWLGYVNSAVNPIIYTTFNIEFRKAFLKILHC
How it was run: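 Radioligand-type binding on purchased cell membranes expressing human D1 or D2 receptors; D2, D1 and α2 assays follow procedures of an earlier patent, D5 binding follows a separate patent procedure.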

[3] = molecular target: T3, human Alpha-1a Adrenergic receptor (Homo sapiens, UniProt P35348); test: Binding affinity at the human alpha-1A adrenergic receptor; conditions: Table 3c; read-out: hAlpha-1a Ki
T3 construct: expressed in transfected cells
T3 sequence (P35348 1-466): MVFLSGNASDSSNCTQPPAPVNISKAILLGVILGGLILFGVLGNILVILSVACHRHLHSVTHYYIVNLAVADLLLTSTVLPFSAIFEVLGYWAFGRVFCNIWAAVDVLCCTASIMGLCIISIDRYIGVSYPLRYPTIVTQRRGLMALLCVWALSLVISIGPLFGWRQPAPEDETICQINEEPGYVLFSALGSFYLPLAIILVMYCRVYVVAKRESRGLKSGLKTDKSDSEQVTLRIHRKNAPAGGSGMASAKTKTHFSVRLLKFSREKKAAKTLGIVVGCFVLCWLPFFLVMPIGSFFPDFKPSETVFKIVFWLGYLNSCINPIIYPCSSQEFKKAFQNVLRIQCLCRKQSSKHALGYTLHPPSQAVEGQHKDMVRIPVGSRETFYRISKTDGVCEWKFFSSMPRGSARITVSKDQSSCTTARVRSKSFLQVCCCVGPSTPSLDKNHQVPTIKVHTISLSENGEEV
How it was run: (§1)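 Receptor binding read-out throughout; membranes expressing human D1 or D2 receptor were used for those two targets.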

[4] = molecular target: T4, human Histamine H1 receptor (Homo sapiens, UniProt P35367); test: Binding affinity at the human histamine H1 receptor; conditions: Table 3c; read-out: hH1 Ki
T4 construct: expressed in transfected cells
T4 sequence (P35367 whole entry): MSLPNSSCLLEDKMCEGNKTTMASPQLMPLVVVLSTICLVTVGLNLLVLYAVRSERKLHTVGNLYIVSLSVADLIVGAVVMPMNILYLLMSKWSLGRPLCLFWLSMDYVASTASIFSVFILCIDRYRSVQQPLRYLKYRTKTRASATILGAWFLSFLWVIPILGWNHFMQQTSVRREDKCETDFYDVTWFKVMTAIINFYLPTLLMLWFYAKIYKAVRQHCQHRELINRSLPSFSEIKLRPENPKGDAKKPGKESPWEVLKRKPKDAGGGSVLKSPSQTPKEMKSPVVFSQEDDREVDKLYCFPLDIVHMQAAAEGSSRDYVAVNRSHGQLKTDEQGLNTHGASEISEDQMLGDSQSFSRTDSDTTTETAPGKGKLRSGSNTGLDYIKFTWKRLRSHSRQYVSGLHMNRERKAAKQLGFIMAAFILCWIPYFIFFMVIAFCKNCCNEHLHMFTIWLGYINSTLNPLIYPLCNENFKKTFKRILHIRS
How it was run: as §1

human MCH1 receptor [5] = molecular target: T5, human MCH1 receptor (Homo sapiens, UniProt Q99705); test: Saturation and competition binding of [3H]Compound 10, membranes of Cos-7 cells transfected with MCH1; set-up: expressed in transfected cells; host or cells: COS-7; conditions: room temperature, 90 min; read-out: Kd (Scatchard analysis of saturation binding)
T5 sequence (Q99705 whole entry): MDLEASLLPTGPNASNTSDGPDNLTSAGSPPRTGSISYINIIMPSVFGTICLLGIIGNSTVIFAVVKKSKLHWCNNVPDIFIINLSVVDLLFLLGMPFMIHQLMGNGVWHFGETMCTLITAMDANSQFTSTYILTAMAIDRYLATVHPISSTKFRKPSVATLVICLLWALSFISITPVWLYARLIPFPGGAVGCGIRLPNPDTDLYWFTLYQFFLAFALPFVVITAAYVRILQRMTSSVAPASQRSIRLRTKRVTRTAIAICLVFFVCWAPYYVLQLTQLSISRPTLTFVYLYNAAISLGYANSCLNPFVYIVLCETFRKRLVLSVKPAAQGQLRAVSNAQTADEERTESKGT
Description: Saturation equilibrium binding of [3H]Compound 10 to the human MCH1 receptor. Membrane preparations from Cos-7 cells transfected with MCH1 were incubated with varying concentrations of [3H]Compound 10 (SA: 56 Ci/mmol) at room temperature for 90 min, in a volume of 0.250 ml. The reaction was terminated by filtration in GF/C filters, and the radioactivity determined by scintillation counting. Non-specific binding was defined as the amount of radioactivity retained in the filter after incubating the reaction mixture in the presence of unlabeled Compound 10 ([…]).
Competition binding of [3H]Compound 10 to the human MCH1 receptor. […] The reaction was terminated by filtration in GF/C filters and the radioactivity bound to the membrane was determined by scintillation counting.
[3H]Compound 10 was tested for its ability to bind to membrane preparations of cells expressing the human MCH1 receptor.

human MCH1 receptor [6] = molecular target: T5, human MCH1 receptor; type: cell-based; set-up: expressed in transfected cells; host or cells: COS-7; conditions: agonist challenge
Description: Guidelines for cell preparation and assay of the second messenger inositol phosphate (IP) are described below for a typical protocol involving transiently transfected Cos-7 cells; For a 96 well microplate format assay, cells are plated at 70,000 cells per well and allowed to incubate for 24 hours after the transfection procedure. The cells are then labeled with 0.5 μCi [^3H]myo-inositol per micro-well over night at 37° C., 5% CO2. Immediately before the assay, the medium is removed and replaced with 90 μl PBS containing 10 mM LiCl. The plates are then incubated for 15 minutes at 37° C., […]. Following the incubation, the transfectants are challenged with agonist (10 μl/well; 10× concentration) for 30 minutes at 37° C., 5% CO2. The challenge is terminated and the cells lysed by the addition of 100 μl cold 5% v/v trichloroacetic acid (TCA), followed by an incubation at 4° C. for greater than 30 minutes. Total IPs are isolated from the lysate by ion exchange chromatography. Briefly, the lysed contents of the wells are transferred to a Multiscreen HV filter plate (Millipore) containing 100 μl Dowex AG1-X8 suspension (50% v/v, water:resin) (200-400 mesh, formate form). The filter plates are placed on a vacuum manifold to wash and elute the resin bed. Each well is first washed 2 times with 200 μl 5 mM myoinositol. Total [^3H]IPs are eluted with 75 μl of 1.2 M ammonium formate/0.1 M formic acid into Wallac 96-well plates. 200 μl of SuperMix scintillation cocktail is added to each well, mixed well, allowed to equilibrate and counted on a Micro Beta Trilux scintillation counter. (Note: The assay may be scaled to a 24 well format by simple adjustment of reagent volumes and employing individual chromatographic columns.)
The expression vector (pEXJ) containing the MCH1 cDNA was transfected by electroporation into Cos-7 cells in combination with an expression vector (pEXJ) containing the Gα16 subunit.

[7] = Examples 38-141, read-out: Ki (nM) rMCH1

| Molecule | Effect of MCH1 antagonist in the CSTI model [1] | Ki (rat MCH1 receptor; [7]) [nM] | Ki (rat MCH1 receptor; Table 3c, read-out: rMCH1 Ki) [nM] | Ki [2] [nM] | Ki [3] [nM] | Ki [4] [nM] | Kd (human MCH1 receptor [5]) [nM] | dose-responsiveness of inositol phosphate formation (human MCH1 receptor [6]) |
| --- | --- | --- | --- | --- | --- | --- | --- | --- |
| COCC1=C(C(=O)OC)[C@H](c2ccc(F)c(F)c2)N(C(=O)NCCCN2CCC(c3cccc(NC(=O)C(C)C)c3)CC2)C(=O)N1 [Example 43, METHYL (4S)-4-(3,4-DIFLUOROPHENYL)-3-{[(3-{4-[3-(ISOBUTYRYLAMINO)PHENYL]-1-PIPERIDINYL}PROPYL)AMINO]CARBONYL}-6-(METHOXYMETHYL)-2-OXO-1,2,3,4-TETRAHYDRO-5-PYRIMIDINECARBOXYLATE] | B | 0.23 | 0.23 | 3570 | 21.9 | 10800 |  |  |
| Cc1ccc(C(=O)CCCN2CCC(c3cccc(NC(=O)C(C)C)c3)CC2)cc1C [Example 58] | B | 3.9 | 3.9 | 2840 | 32.1 | 700 |  |  |
| CC(C)C(=O)Nc1cccc(C2CCN(CCCC(=O)c3ccc(Cl)cc3)CC2)c1 [Example 66] | B | 2.8 | 2.8 | 862 | 19.4 | 461 |  |  |
| COCC1=C(C(=O)OC)[C@H](c2ccc(F)c(F)c2)N(C(=O)NCCCN2CCC(c3cccc(NC(C)=O)c3)CC2)C(=O)N1 [[3H]Compound 10, TRITIATED METHYL (4S)-3-{[(3-{4-[3-(ACETYLAMINO)PHENYL]-1-PIPERIDINYL}PROPYL)AMINO]CARBONYL}-4-(3,4-DIFLUOROPHENYL)-6-(METHOXYMETHYL)-2-OXO-1,2,3,4-TETRAHYDRO-5-PYRIMIDINECARBOXYLATE] |  |  |  |  |  |  | 0.18 |  |
| O=C(CCCN1CCC(O)(c2ccc(Cl)cc2)CC1)c1ccc(F)cc1 [haloperidol] |  |  |  |  |  |  |  | No dose-responsiveness |
| dynorphin A1-13: compound tested for its ability to activate MCH1 (YGGFLRRIRPKLK) |  |  |  |  |  |  |  | No dose-responsiveness |
